Key:
Type in all cases: in vivo
[1] = tested on: Brassica napus (winter rape); experiment: Greenhouse postemergence herbicidal effect, winter rape (BRSNW); settings: Example 6; Glufosinate 112.5 g ai/ha alone; 20-22 d
From the text: (§1) Greenhouse Trial Methodology—Evaluation of Postemergence Herbicidal Effect
(§2) Seeds of the desired test plant species were planted in a 90:10% v/v (volume/volume) mixture of PRO-MIX® BX (Premier Tech Horticulture, Quakertown, Pa., USA) and PROFILE® GREENS GRADE™ (Profile Products LLC, Buffalo Grove, Ill., USA) planting mixture, which typically has a pH of 5.2 to 6.2 and an organic matter content of at least 50 percent, in plastic pots with a surface area of 103.2 square centimeters (cm^2). In some aspects, to ensure good germination and healthy plants, a fungicide treatment and/or other chemical or physical treatment was applied. The plants were grown for 7-36 days (d) in a greenhouse with an approximate 14-hour (h) photo-period which was maintained at about 23° C. during the day and 22° C. during the night. Nutrients and water were added on a regular basis and supplemental lighting was provided with overhead metal halide 1000-Watt lamps as necessary. The plants were employed for testing when they reached the second or third true leaf stage.
(§3) Emulsifiable concentrates of each of each pyridine carboxylate herbicide (Compound A or Compound B) were prepared at 100 grams acid equivalent per liter (g ae/L). The emulsifiable concentrates also included a safener, cloquintocet-mexyl, at 120 grams active ingredient per liter (g ai/L). An aliquot of each emulsifiable concentrate was placed in a 25 mL glass vial and diluted with an aqueous mixture of 1.25% (v/v) ACTIROB® B esterified rapeseed oil (Bayer Crop Science, Research Triangle Park, N.C., USA) or MSO® Concentrate with LECI-TECH® methylated soybean oil (Loveland Products, Loveland, Colo., USA) to obtain concentrated stock solutions at the highest application rate for each herbicide, based upon a 12 milliliter (mL) application volume at a rate of 187 liters per hectare (L/ha). The concentrated stock solutions were further diluted with an aqueous mixture of 1.25% v/v ACTIROB® B or MSO® Concentrate with LECI-TECH® to obtain stock solutions at reduced application rates for each herbicide. Spray solutions of the herbicide combinations (Compound A or Compound B plus glyphosate or glufosinate) were prepared by adding weighed amounts or aliquots of the glyphosate or glufosinate to the stock solutions of Compound A or Compound B to form 12-mL spray solutions in two-way combinations.
(§4) The spray solutions were applied to the plant material with an overhead Mandel track sprayer equipped with 8002E nozzles calibrated to deliver 187 L/ha over an application area of 0.503 square meters (m^2) at a spray height of 18 inches (43 centimeters (cm)) above the average plant canopy. Control plants were sprayed in the same manner with the solvent blank. All pyridine carboxylate herbicide (component a) application rates are given as “g ae/ha” and all glyphosate or glufosinate (component b) application rates are given as “g ai/ha.”
(§5) The treated plants and control plants were placed in a greenhouse as described above and watered by sub-irrigation to prevent wash-off of the test compounds. After 20-22 d, the condition of the test plants as compared with that of the control plants was determined visually and scored on a scale of 0 to 100 percent where 0 corresponds to no injury and 100 corresponds to complete kill.

[2] = tested on: Echinochloa crus-galli (barnyardgrass); experiment: Greenhouse postemergence herbicidal effect, barnyardgrass (ECHCG); settings: Example 5; Glufosinate 70 g ai/ha alone; 20-22 d
From the text: as §1, §2
(§6) Emulsifiable concentrates of each of each pyridine carboxylate herbicide (Compound A or Compound B) were prepared at 100 grams acid equivalent per liter (g ae/L). The emulsifiable concentrates also included a safener, cloquintocet-mexyl, at 120 grams active ingredient per liter (g ai/L). […]
as §5

[3] = tested on: Stellaria media (chickweed); experiment: Greenhouse postemergence herbicidal effect, chickweed (STEME); settings: Example 5; Glufosinate 70 g ai/ha alone; 20-22 d
From the text: as §1, §2, §6, §5

[4] = tested on: Helianthus annuus (common sunflower); experiment: Greenhouse postemergence herbicidal effect, common sunflower (HELAN); settings: Example 5; Glufosinate 70 g ai/ha alone; 20-22 d
From the text: as §1, §2, §6, §5

[5] = tested on: Viola tricolor (wild pansy); experiment: Greenhouse postemergence herbicidal effect, wild pansy (VIOTR); settings: 20-22 d
From the text: as §1, §2, §3, §4, §5

[6] = tested on: Triticum aestivum (spring wheat); experiment: Greenhouse postemergence phytotoxicity on crop, spring wheat (TRZAS); settings: Example 6; Glufosinate 112.5 g ai/ha alone; 20-22 d
From the text: as §1, §2, §3, §4, §5

[7] = tested on: Chenopodium album L. (common lambsquarters); experiment: Greenhouse postemergence herbicidal effect, common lambsquarters (CHEAL); settings: Glufosinate 112.5 g ai/ha alone, 20-22 d
From the text: as §1, §2, §3, §4, §5

[8] = tested on: Salsola kali (Russian thistle); experiment: Greenhouse postemergence herbicidal effect, Russian thistle (SASKR); settings: Example 6; Glufosinate 112.5 g ai/ha alone; 20-22 d
From the text: as §1, §2, §3, §4, §5

[9] = tested on: Rumex obtusifolius (broad-leaf dock); experiment: Greenhouse postemergence herbicidal effect, broad-leaf dock (RUMOB); settings: Example 5; Glufosinate 70 g ai/ha alone; 20-22 d
From the text: as §1, §2, §6, §5

[10] = tested on: Setaria faberi (giant foxtail); experiment: Greenhouse postemergence herbicidal effect, giant foxtail (SETFA); settings: Example 4; Glufosinate 112.5 g ai/ha alone; 20-22 d
From the text: as §1, §2, §3, §4, §5

[11] = tested on: Cirsium arvense (Canadian thistle); experiment: Greenhouse postemergence herbicidal effect, Canadian thistle (CIRAR); settings: 20-22 d
From the text: as §1, §2, §3, §4, §5

[12] = tested on: Amaranthus retroflexus (pigweed); experiment: Greenhouse postemergence herbicidal effect, pigweed (AMARE); settings: Example 6; Glufosinate 112.5 g ai/ha alone; 20-22 d
From the text: as §1, §2, §3, §4, §5

[13] = tested on: Brassica napus (spring rape); experiment: Greenhouse postemergence herbicidal effect, spring rape (BRSNN); settings: Example 4; Glufosinate 112.5 g ai/ha alone; 20-22 d
From the text: as §1, §2, §3, §4, §5

[14] = tested on: Polygonum convolvulus (wild buckwheat); experiment: Greenhouse postemergence herbicidal effect, wild buckwheat (POLCO); settings: 20-22 d
From the text: as §1, §2, §3, §4, §5

[15] = tested on: Matricaria chamomilla (wild chamomile); experiment: Greenhouse postemergence herbicidal effect, wild chamomile (MATCH); settings: Example 6; Glufosinate 112.5 g ai/ha alone; 20-22 d
From the text: as §1, §2, §3, §4, §5

[16] = tested on: Cyperus esculentus (nutsedge); experiment: Greenhouse postemergence herbicidal effect, nutsedge (CYPES); settings: Example 5; Glufosinate 70 g ai/ha alone; 20-22 d
From the text: as §1, §2, §6, §5

[17] = tested on: Euphorbia heterophylla (poinsettia); experiment: Greenhouse postemergence herbicidal effect, poinsettia (EPHHL); settings: Example 5; Glufosinate 70 g ai/ha alone; 20-22 d
From the text: as §1, §2, §6, §5

[18] = tested on: Sinapis arvensis (wild mustard); experiment: Greenhouse postemergence herbicidal effect, wild mustard (SINAR); settings: Example 6; Glufosinate 112.5 g ai/ha alone; 20-22 d
From the text: as §1, §2, §3, §4, §5

[19] = tested on: Sorghum vulgare (grain sorghum); experiment: Greenhouse postemergence herbicidal effect, grain sorghum (SORVU); settings: Example 5; Glufosinate 70 g ai/ha alone; 20-22 d
From the text: as §1, §2, §6, §5

[20] = tested on: Ipomoea hederacea (ivyleaf morningglory); experiment: Greenhouse postemergence herbicidal effect, ivyleaf morningglory (IPOHE); settings: Example 5; Glufosinate 70 g ai/ha alone; 20-22 d
From the text: as §1, §2, §6, §5

[21] = tested on: Hordeum vulgare (spring barley); experiment: Greenhouse postemergence phytotoxicity on crop, spring barley (HORVS); settings: Example 6; Glufosinate 112.5 g ai/ha alone; 20-22 d
From the text: as §1, §2, §3, §4, §5

Kochia scoparia (kochia) = experiment: Greenhouse postemergence herbicidal effect, kochia (KCHSC); settings: 20-22 d
From the text: as §1, §2, §3, §4, §5

[22] = tested on: Abutilon theophrasti (velvetleaf); experiment: Greenhouse postemergence herbicidal effect, velvetleaf (ABUTH); settings: Example 4; Glufosinate 112.5 g ai/ha alone; 20-22 d
From the text: as §1, §2, §6, §5

[23] = Example 4, Glufosinate 112.5 g ai/ha alone
[24] = Example 5, Glufosinate 70 g ai/ha alone
[25] = Example 6, Glufosinate 112.5 g ai/ha alone

Structure (SMILES): CP(=O)(O)CCC(N)C(=O)O (stereo not shown) [Glufosinate, 2-amino-4-(hydroxy(methyl)phosphinyl)butanoic acid]
- % visual injury, Obs [1]: 20%
- % visual injury, Obs [2]: 30%
- % visual injury, Obs [3]: 68%
- % visual injury, Obs [4]: 98%
- % visual injury, Obs [5, 23]: 23%
- % visual injury, Obs [5, 24]: 20%
- % visual injury, Obs [6]: 35%
- % visual injury, Obs ([7]; Example 4): 5%
- % visual injury, Obs ([7]; Example 6): 5%
- % visual injury, Obs [8]: 53%
- % visual injury, Obs [9]: 73%
- % visual injury, Obs [10]: 33%
- % visual injury, Obs [11, 23]: 8%
- % visual injury, Obs [11, 24]: 75%
- % visual injury, Obs [11, 25]: 73%
- % visual injury, Obs [12]: 65%
- % visual injury, Obs [13]: 33%
- % visual injury, Obs [14, 23]: 10%
- % visual injury, Obs [14, 24]: 70%
- % visual injury, Obs [14, 25]: 15%
- % visual injury, Obs [15]: 65%
- % visual injury, Obs [16]: 13%
- % visual injury, Obs [17]: 80%
- % visual injury, Obs [18]: 25%
- % visual injury, Obs [19]: 58%
- % visual injury, Obs [20]: 82%
- % visual injury, Obs [21]: 35%
- % visual injury, Obs (Kochia scoparia (kochia); [23]): 10%
- % visual injury, Obs (Kochia scoparia (kochia); [24]): 15%
- % visual injury, Obs (Kochia scoparia (kochia); [25]): 25%
- % visual injury, Obs [22]: 20%

From US20210400967A1, “COMPOSITIONS COMPRISING PYRIDINE CARBOXYLATE HERBICIDES WITH GLYPHOSATE OR GLUFOSINATE” (Corteva Agriscience LLC, priority 2018, published 2021)
